Results published in PubChem BioAssay (NCI).
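Dose response: 5 concentrations. Exposure: 48 h. Format: 96-well plates. Endpoint: linear interpolation; highest concentration if not reached. GI50 is the concentration that inhibits growth by half. The concentration for full growth arrest is given as TGI.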

Legend:
Assay in all cases: NCI-60 cell line screen, 48 h; in the data active means GI50 below about 0.43 µM; inactive means the rest
786-0 renal = tested on: 786-0 renal
A498 renal = tested on: A498 renal
A549 NSCLC = tested on: A549 NSCLC
ACHN renal = tested on: ACHN renal
BT-549 breast = tested on: BT-549 breast
CAKI-1 renal = tested on: CAKI-1 renal
CCRF-CEM leukemia = tested on: CCRF-CEM leukemia
COLO 205 colon = tested on: COLO 205 colon
DU-145 prostate = tested on: DU-145 prostate
EKVX NSCLC = tested on: EKVX NSCLC
HCC-2998 colon = tested on: HCC-2998 colon
HCT-116 colon = tested on: HCT-116 colon
HCT-15 colon = tested on: HCT-15 colon
HOP-62 NSCLC = tested on: HOP-62 NSCLC
HOP-92 NSCLC = tested on: HOP-92 NSCLC
HS 578T breast = tested on: HS 578T breast
HT29 colon = tested on: HT29 colon
IGROV1 ovarian = tested on: IGROV1 ovarian
K-562 leukemia = tested on: K-562 leukemia
KM12 colon = tested on: KM12 colon
LOX IMVI melanoma = tested on: LOX IMVI melanoma
M14 melanoma = tested on: M14 melanoma
MALME-3M melanoma = tested on: MALME-3M melanoma
MCF7 breast = tested on: MCF7 breast
MDA-MB-231 breast = tested on: MDA-MB-231 breast
MDA-MB-435 = tested on: MDA-MB-435
MOLT-4 leukemia = tested on: MOLT-4 leukemia
NCI-H23 lung = tested on: NCI-H23 lung
NCI-H460 lung = tested on: NCI-H460 lung
NCI-H522 lung = tested on: NCI-H522 lung
NCI/ADR-RES ovarian = tested on: NCI/ADR-RES ovarian
OVCAR-3 ovarian = tested on: OVCAR-3 ovarian
OVCAR-4 ovarian = tested on: OVCAR-4 ovarian
OVCAR-5 ovarian = tested on: OVCAR-5 ovarian
OVCAR-8 ovarian = tested on: OVCAR-8 ovarian
PC-3 prostate = tested on: PC-3 prostate
RPMI-8226 leukemia = tested on: RPMI-8226 leukemia
RXF 393 renal = tested on: RXF 393 renal
SF-268 CNS = tested on: SF-268 CNS
SF-295 CNS = tested on: SF-295 CNS
SF-539 CNS = tested on: SF-539 CNS
SK-MEL-2 melanoma = tested on: SK-MEL-2 melanoma
SK-MEL-28 melanoma = tested on: SK-MEL-28 melanoma
SK-MEL-5 melanoma = tested on: SK-MEL-5 melanoma
SK-OV-3 ovarian = tested on: SK-OV-3 ovarian
SN12C renal = tested on: SN12C renal
SNB-19 CNS = tested on: SNB-19 CNS
SR leukemia = tested on: SR leukemia
SW-620 colon = tested on: SW-620 colon
T-47D breast = tested on: T-47D breast
TK-10 renal = tested on: TK-10 renal
U251 CNS = tested on: U251 CNS
UACC-257 melanoma = tested on: UACC-257 melanoma
UACC-62 melanoma = tested on: UACC-62 melanoma
UO-31 renal = tested on: UO-31 renal
HL-60(TB) leukemia = tested on: HL-60(TB) leukemia
NCI-H226 lung = tested on: NCI-H226 lung

C=C1C(O)C2CC(C)(C)C(=O)C2=C(CC(C)C)C12CC2 (stereo not given)
> 100 µM: TGI (786-0 renal) | TGI (A498 renal) | TGI (A549 NSCLC) | TGI (ACHN renal) | TGI (BT-549 breast) | TGI (CAKI-1 renal) | TGI (CCRF-CEM leukemia) | TGI (COLO 205 colon) | TGI (DU-145 prostate) | TGI (EKVX NSCLC) | TGI (HCC-2998 colon) | TGI (HCT-116 colon) | TGI (HCT-15 colon) | TGI (HOP-62 NSCLC) | TGI (HOP-92 NSCLC) | TGI (HS 578T breast) | TGI (HT29 colon) | TGI (IGROV1 ovarian) | TGI (K-562 leukemia) | TGI (KM12 colon) | TGI (LOX IMVI melanoma) | TGI (M14 melanoma) | TGI (MALME-3M melanoma) | TGI (MCF7 breast) | TGI (MDA-MB-231 breast) | TGI (MDA-MB-435) | TGI (MOLT-4 leukemia) | TGI (NCI-H23 lung) | TGI (NCI-H460 lung) | TGI (NCI-H522 lung) | TGI (NCI/ADR-RES ovarian) | TGI (OVCAR-3 ovarian) | TGI (OVCAR-4 ovarian) | TGI (OVCAR-5 ovarian) | TGI (OVCAR-8 ovarian) | TGI (PC-3 prostate) | TGI (RPMI-8226 leukemia) | TGI (RXF 393 renal) | TGI (SF-268 CNS) | TGI (SF-295 CNS) | TGI (SF-539 CNS) | TGI (SK-MEL-2 melanoma) | TGI (SK-MEL-28 melanoma) | TGI (SK-MEL-5 melanoma) | TGI (SK-OV-3 ovarian) | TGI (SN12C renal) | TGI (SNB-19 CNS) | TGI (SR leukemia) | TGI (SW-620 colon) | TGI (T-47D breast) | TGI (TK-10 renal) | TGI (U251 CNS) | TGI (UACC-257 melanoma) | TGI (UACC-62 melanoma) | TGI (UO-31 renal)
inactive: GI50 (786-0 renal) > 100 µM | GI50 (A498 renal) > 100 µM | GI50 (A549 NSCLC) > 100 µM | GI50 (ACHN renal) > 100 µM | GI50 (BT-549 breast) > 100 µM | GI50 (CAKI-1 renal) > 100 µM | GI50 (CCRF-CEM leukemia) 98.1 µM | GI50 (COLO 205 colon) > 100 µM | GI50 (DU-145 prostate) > 100 µM | GI50 (EKVX NSCLC) > 100 µM | GI50 (HCC-2998 colon) > 100 µM | GI50 (HCT-116 colon) > 100 µM | GI50 (HCT-15 colon) > 100 µM | GI50 (HOP-62 NSCLC) > 100 µM | GI50 (HOP-92 NSCLC) > 100 µM | GI50 (HS 578T breast) > 100 µM | GI50 (HT29 colon) > 100 µM | GI50 (IGROV1 ovarian) 55.6 µM | GI50 (K-562 leukemia) > 100 µM | GI50 (KM12 colon) > 100 µM | GI50 (LOX IMVI melanoma) > 100 µM | GI50 (M14 melanoma) > 100 µM | GI50 (MALME-3M melanoma) > 100 µM | GI50 (MCF7 breast) > 100 µM | GI50 (MDA-MB-231 breast) > 100 µM | GI50 (MDA-MB-435) > 100 µM | GI50 (MOLT-4 leukemia) 72 µM | GI50 (NCI-H23 lung) > 100 µM | GI50 (NCI-H460 lung) > 100 µM | GI50 (NCI-H522 lung) 85 µM | GI50 (NCI/ADR-RES ovarian) > 100 µM | GI50 (OVCAR-3 ovarian) > 100 µM | GI50 (OVCAR-4 ovarian) > 100 µM | GI50 (OVCAR-5 ovarian) > 100 µM | GI50 (OVCAR-8 ovarian) > 100 µM | GI50 (PC-3 prostate) > 100 µM | GI50 (RPMI-8226 leukemia) 36 µM | GI50 (RXF 393 renal) > 100 µM | GI50 (SF-268 CNS) > 100 µM | GI50 (SF-295 CNS) > 100 µM | GI50 (SF-539 CNS) > 100 µM | GI50 (SK-MEL-2 melanoma) > 100 µM | GI50 (SK-MEL-28 melanoma) > 100 µM | GI50 (SK-MEL-5 melanoma) > 100 µM | GI50 (SK-OV-3 ovarian) > 100 µM | GI50 (SN12C renal) > 100 µM | GI50 (SNB-19 CNS) > 100 µM | GI50 (SR leukemia) 62.4 µM | GI50 (SW-620 colon) > 100 µM | GI50 (T-47D breast) > 100 µM | GI50 (TK-10 renal) > 100 µM | GI50 (U251 CNS) > 100 µM | GI50 (UACC-257 melanoma) > 100 µM | GI50 (UACC-62 melanoma) > 100 µM | GI50 (UO-31 renal) > 100 µM

Nc1cc(N)c2nc(-c3ccccc3)c(NCc3ccc(Cl)c(Cl)c3)nc2c1
33.4 µM: TGI (DU-145 prostate)
54.4 µM: TGI (T-47D breast)
37.2 µM: TGI (SF-295 CNS)
5.16 µM: TGI (PC-3 prostate)
active: GI50 (CCRF-CEM leukemia) 0.133 µM
50.8 µM: TGI (SNB-19 CNS)
31.9 µM: TGI (HOP-62 NSCLC)
21.3 µM: TGI (KM12 colon)
32.4 µM: TGI (A498 renal)
27.8 µM: TGI (NCI-H23 lung)
18.8 µM: TGI (SF-539 CNS)
4.91 µM: TGI (NCI-H522 lung)
4.26 µM: TGI (SK-MEL-2 melanoma)
30.4 µM: TGI (786-0 renal)
55.2 µM: TGI (SF-268 CNS)
30.8 µM: TGI (UACC-62 melanoma)
9.88 µM: TGI (SW-620 colon)
35.9 µM: TGI (SK-OV-3 ovarian)
33.6 µM: TGI (COLO 205 colon)
inactive: GI50 (786-0 renal) 13.1 µM | GI50 (A498 renal) 17.4 µM | GI50 (A549 NSCLC) 10.8 µM | GI50 (CAKI-1 renal) 13.2 µM | GI50 (COLO 205 colon) 16.9 µM | GI50 (DU-145 prostate) 16.2 µM | GI50 (EKVX NSCLC) 10.9 µM | GI50 (HCT-116 colon) 11.5 µM | GI50 (HCT-15 colon) 4.64 µM | GI50 (HL-60(TB) leukemia) 1.82 µM | GI50 (HOP-62 NSCLC) 15.7 µM | GI50 (HS 578T breast) 5.9 µM | GI50 (IGROV1 ovarian) 1.97 µM | GI50 (K-562 leukemia) 3.09 µM | GI50 (KM12 colon) 3.42 µM | GI50 (M14 melanoma) 15.7 µM | GI50 (MALME-3M melanoma) 3.41 µM | GI50 (MCF7 breast) 12.4 µM | GI50 (MDA-MB-231 breast) 1.58 µM | GI50 (MDA-MB-435) 2.74 µM | GI50 (MOLT-4 leukemia) 2.07 µM | GI50 (NCI-H226 lung) 22.6 µM | GI50 (NCI-H23 lung) 14.2 µM | GI50 (NCI-H460 lung) 20.8 µM | GI50 (NCI-H522 lung) 2.05 µM | GI50 (NCI/ADR-RES ovarian) 17.4 µM | GI50 (OVCAR-3 ovarian) 2.64 µM | GI50 (OVCAR-4 ovarian) 11.7 µM | GI50 (OVCAR-5 ovarian) 23.8 µM | GI50 (OVCAR-8 ovarian) 3.41 µM | GI50 (PC-3 prostate) 1.75 µM | GI50 (RPMI-8226 leukemia) 1.66 µM | GI50 (RXF 393 renal) 3.06 µM | GI50 (SF-268 CNS) 19.8 µM | GI50 (SF-295 CNS) 15.5 µM | GI50 (SF-539 CNS) 4.6 µM | GI50 (SK-MEL-2 melanoma) 1.91 µM | GI50 (SK-MEL-28 melanoma) 18.8 µM | GI50 (SK-MEL-5 melanoma) 3.48 µM | GI50 (SK-OV-3 ovarian) 18.5 µM | GI50 (SN12C renal) 5.98 µM | GI50 (SNB-19 CNS) 22.5 µM | GI50 (SR leukemia) 1.63 µM | GI50 (SW-620 colon) 3.26 µM | GI50 (T-47D breast) 19.4 µM | GI50 (TK-10 renal) 12.8 µM | GI50 (UACC-257 melanoma) 4.53 µM | GI50 (UACC-62 melanoma) 14 µM | GI50 (UO-31 renal) 4.17 µM
45.6 µM: TGI (NCI/ADR-RES ovarian)
1.83 µM: TGI (CCRF-CEM leukemia)
3.72 µM: TGI (RPMI-8226 leukemia)
41.7 µM: TGI (SK-MEL-28 melanoma)
34.6 µM: TGI (M14 melanoma)
40.7 µM: TGI (OVCAR-5 ovarian)
27.4 µM: TGI (A549 NSCLC)
54.3 µM: TGI (MCF7 breast)
5.95 µM: TGI (IGROV1 ovarian)
13.5 µM: TGI (OVCAR-8 ovarian)
52.7 µM: TGI (CAKI-1 renal)
46.7 µM: TGI (HS 578T breast)
24 µM: TGI (SN12C renal)
5.97 µM: TGI (SR leukemia)
46.3 µM: TGI (NCI-H226 lung)
16.8 µM: TGI (RXF 393 renal)
15.7 µM: TGI (UACC-257 melanoma)
7.56 µM: TGI (MDA-MB-435)
38.7 µM: TGI (EKVX NSCLC)
> 100 µM: TGI (HCT-15 colon) | TGI (MOLT-4 leukemia) | TGI (OVCAR-4 ovarian) | TGI (UO-31 renal)
10.7 µM: TGI (SK-MEL-5 melanoma)
7.94 µM: TGI (HL-60(TB) leukemia)
46.9 µM: TGI (NCI-H460 lung)
6.98 µM: TGI (OVCAR-3 ovarian)
24.1 µM: TGI (HCT-116 colon)
17.8 µM: TGI (K-562 leukemia)
13.8 µM: TGI (MALME-3M melanoma)
30.5 µM: TGI (TK-10 renal)
4.45 µM: TGI (MDA-MB-231 breast)
